Tests used:
serine proteases = assay: IgG degradation by aminobenzamidine purified serine protease fraction F4 with and without PMSF; type: biochemical, Trichoderma reesei; conditions: PMSF 5 mM; pH 5.5, 37°C, 20 hours
Experimental: Serine proteases comprise a major family of proteases that have been identified as antibody degrading enzymes. Accordingly, serine proteases were purified from Trichoderma supernatant. The serine proteases were first affinity purified from fermentation culture supernatants with a p-aminobenzamidine sepharose 4 fast flow resin (GE healthcare #17-5123-10). 15 ml of the fermentation culture supernatant was batch bound to the resin in 35 ml of binding buffer (0.05 M Tris-HCL, 0.5 M NaCl, pH 7.4). After packing and washing the column with the same binding buffer, the column was eluted with 0.05 M glycine, pH 3.0. The fractions were then neutralized with 1M Tris HCL, pH 8.8.
In total 1.7 mg of protein was purified from the affinity column. When the peak fractions were run on a 4-15% SDS-PAGE gel, several major bands (˜110 kD, 53 kD, 39 kD, 29 kD) and many more minor bands were seen. The peak fraction protein mixture (F4) was then tested for protease activity by incubated a sample of the F4 with human IgG1 in sodium citrate buffer (50 mM, pH 5.5) at 37° C. for 20 hours. The samples were incubated both in the presence and absence of the serine protease inhibitor PMSF (5 mM). The incubated samples were then analyzed by immunoblotting with an anti-IgG heavy chain AP conjugate antibody (Sigma #A3188) and an anti-IgG light chain AP conjugate antibody (Sigma #A3812) diluted 1:30,000 in TBST.

[1] = tested on: SIP purified proteases (PEP2, PEP3, PEP4, PEP5, GAP1, SLP2); assay: Protease activity of SIP purified fractions against casein with inhibitors (EnzChek); type: biochemical, Trichoderma reesei; conditions: pH 5.5; for proteases inhibited: SIP, LIP, pepstatin A 60 μM, SBTI 200 μg/ml
Experimental: Protease activity was then tested against casein both in the presence and absence of protease inhibitors. Protease activity against casein was tested using the EnzChek protease assay kit (Molecular probes #E6638, green fluorescent casein substrate). The working stock solution was prepared by diluting the stock to 10 μg ml in 50 mM sodium citrate, pH 5.5. The purified protease fractions (10 μl) were diluted with […] of sodium citrate, pH 5.5. 100 μl of the diluted substrate was combined with the diluted protease fractions in a 96 well sample plate. The plate was then covered and kept at 37° C. for one to three hours. Fluorescence readings were taken at one, two, and three hours with a Varioskan fluorescent plate reader (Thermo Scientific) using 485 nm excitation and 530 nm emission.
The SIP inhibitor peptide, pepstatin A, LIP peptide, SBTI, and chymostatin were used as inhibitors. […] SIP, LIP, and pepstatin A were used at a concentration of 60 μM, and SBTI was used at a concentration of 200 μg/ml.

[2] = tested on: tryptic and chymotryptic proteases; assay: In vitro inhibitor treatment: rituximab heavy chain degradation in M44 supernatant; type: biochemical, Trichoderma reesei; conditions: 100 μM chymostatin or 1 mg/ml SBTI; M44 supernatant 6 mg/ml, pH 5.5
Experimental: Based on the knowledge that the heavy chain is cleaved by tryptic and chymotryptic proteases, inhibitors of these two enzyme classes were tested against antibody degradation both in vitro and in culture experiments utilizing an antibody producing T. reesei strain. The inhibitors soybean trypsin inhibitor (SBTI) and chymostatin were tested, as they have been previously shown in in vitro experiments to stabilize antibody heavy chains.
Chymostatin and SBTI were analyzed in vitro with culture supernatant. Supernatant from a fed batch fermentor culture was diluted to 6 mg/ml with sodium citrate buffer pH 5.5 (pH 5.5; 28° C.; 20 g/L spent grain extract, 60 g/L lactose). […] The strain was grown in Trichoderma minimal medium supplemented with 20 g/l spent grain extract and 60 g/l lactose at pH 5.5 and 28° C.
To this diluted supernatant 0.05 μg μl of rituximab, 100 μM chymostatin, 1 mg/ml SBTI, or a combination of both inhibitors was added in a total volume of 50 μl and sampled at 0, 1, and 19 hours to assess the early and late degradation of the rituximab antibody heavy chain. The resulting heavy chain products were analyzed by immunoblot using and anti-heavy chain AP conjugated antibody (Sigma #A3188) diluted 1:30,000 in TBST (FIG. 35). […] Additional fragments were generated after 19 hours, the two major products remained.

[3] = tested on: rituximab antibody producing strain; assay: Treatment of T. reesei rituximab cultures with inhibitors; type: cell-based, Trichoderma reesei
Experimental: The effectiveness of the inhibitors was also tested with the rituximab antibody producing strain, which contains a VALEKR linker sequence and the pep1 deletion. This strain was grown in triplicate, in small flasks both in presence or absence of chymostatin, SBTI, or pepstatin A. The small shake flasks contained 50 ml of TrMM plus lactose (40 g/l), spent grain extract (20 g/l), and buffer with 100 mM PIPPS at pH 5.5. The SBTI inhibitor was added to the culture at final concentrations of either 100 μg/ml or 500 μg/ml. Chymostatin was used at 100 μM, and pepstatin A was used at 10 μM. Each of the three inhibitors was added to the cultures daily on day 2, 3, 4, and 5.
Growth of the cultures was followed daily by pH from day 2 until day 7. […] In the PIPPS buffered cultures, the pH decreased from an initial pH of 5.5 down to a pH of 4.8 after day 6. With chymostatin and pepstatin A the cultures were monitored up to day 7. On day 7 the average pH for the control bottles was 4.6, while the average pH for chymostatin treated cultures was 4.9, and the average pH of pepstatin A treated cultures was 5.0.
Culture supernatant samples (30 μl) were also collected on days 3, 4, and 5 for analysis of antibody production. The analysis was performed by immunoblots using an anti-IgG heavy chain antibody AP conjugate (Sigma #A3188) and an anti-light chain antibody AP conjugate (Sigma #A3812). Each antibody was diluted 1:30,000 in TBST. The full length rituximab heavy chain is about 51 kD, the rituximab light chain CHBI fusion is about 100 kD, and the free rituximab light chain is about 28 kD.

[4] = tested on: M369 human growth hormone strain; assay: hGH production in 24 well cultures with inhibitors and supplements; type: cell-based, Trichoderma reesei; conditions: 24 well culture, pH 4.5, day 4 immunoblot
Experimental: To evaluate what inhibitors would best stabilize production of hGH, 24 well cultures of these strains were performed. The M369 human growth hormone strain (Δpep1Δtsp1Δslp1Δgap1Δgap2) was grown along with single components or with combinations of the following: trypsin and subtilisin inhibitor SBTI, the acidic protease inhibitor peptide SIP, the acidic protease inhibitor peptide LIP, the aspartic protease inhibitor pepstatin A free peptide, pepstatin A immobilized to agarose beads, the trypsin and subtilisin inhibitor BBI from lima bean, the […] chymostatin, and BSA. Three independent wells were chosen for control wells where no inhibitors or supplements were added. These two strains were grown in 3 ml of TrMM with diammonium citrate without ammonium sulfate, 100 mM PIPPS, 20 g/L spent grain extract, 40 g/L lactose adjusted to pH 4.5. The 24 well plates were shaken at 800 rpm, 85% humidity, and 28° C. The cultures were grown for 6 days and covered with an air permeable membrane.
Inhibitors were added first on day 1 and then daily beginning on day 3. 100 μl samples were taken from the culture wells beginning on day 3. The mycelium was spun down for 5 minutes at 13 k and the supernatant collected. From the culture supernatant 12 μl was loaded in a 4-20% SDS PAGE gel and immunoblotting made on nitrocellulose with mouse anti-hGH antibody (2 μg/ml) and goat anti-mouse IgG AP conjugated secondary antibody diluted 1:10,000 in TBST.
Estimating the expression levels relative to the 200 ng control sample, the control wells produced between 3-6 mg/L of hGH, the BSA (0.25%)/SIP (50 μM)/8BTI (0.2 mg/ml) treatment produced 24.5 mg/L, the SIP (50 μM)/8BTI (0.2 mg/ml) treatment produced 26.6 mg/L, and the pepstatin A beads/SBTI (0.2 mg/ml) addition yielded 24.5 mg/L of hGH. Therefore, using a combination of inhibitors and additives worked best increasing the production levels by at least 4-fold. The critical parameter was to include an aspartic protease inhibitor into the mix.

[5] = tested on: aspartic and glutamic protease; assay: MAB01 heavy chain degradation by SIP purified proteases with and without SIP inhibitor peptide; type: biochemical, Trichoderma reesei; conditions: overnight 37°C, pH 4.0 and pH 5.5
Experimental: Several additional aspartic proteases were isolated from the T. reesei M277 triple protease deletion strain (pep1, tsp1, slp1). […] The M277 deletion strain was generated as described in Example 4 below. The strain was grown in Trichoderma minimal medium supplemented with 20 g/l spent grain extract, 60 g/l lactose, and 9 g/l casamino acids at pH 5.5 and 28° C. The aspartic proteases were isolated by affinity purification using the SIP peptide (Ac-Phe-Lys-Phe-(AHPPA)-Leu-Arg-NH2) (Kataoka Y. et al. 2005 FEBS Letters 579, pp 2991-2994). The SIP peptide was conjugated to NHS activated agarose resin (Pierce #26196) using the protocol provided by the manufacturer. The SIP affinity resin was used to purify proteases. Fermentation supernatant (15 ml) from the T. reesei M277 strain was then used to batch bind proteases to the resin in 35 ml buffer containing 50 mM sodium acetate, 0.2 M NaCl, pH 3.0 (from fermentation conditions pH 5.5; 28° C.; 9 g/l casaminoacids; 20 g/L spent grain extract, 60 g/L lactose). The column was washed with the same binding buffer and bound protein removed with elution buffer (50 mM Tris-HCL, 1 M NaCl, pH 8.5). […]
The SIP purified proteases were then tested for their ability to degrade the MAB01 antibody heavy chain. […] The collected samples were analyzed by immunoblotting with an anti-IgG heavy chain antibody AP conjugate (Sigma A3188) diluted 1:30,000 in TBST. […]

[6] = tested on: proteases in supernatant from the 6-fold protease deletion strain M400; assay: Protease stability of proteins spiked into supernatant of the 6-fold protease deletion strain; type: biochemical, Trichoderma reesei; conditions: M400 supernatant pH 4.2, 20 hours, 37°C, 0.05 μg/μl
Experimental: The protease stability of the model proteins IGF1, hGH, and IFNα2b were analyzed by spiking them into supernatant from the 6-fold protease deletion strain (Δpep1Δtsp1Δslp1Δgap1Δgap2Δpep4) M400. The supernatant was collected from a large shake flask culture CAH15. The undiluted supernatant from the shake flask cultivation CAH15 was incubated with the purified model proteins with and without pepstatin A (50 μM) and SBTI (0.2 mg/ml) inhibitors for 20 hours at 37° C. The 5 day culture supernatant pH was around 4.2. The reaction containing 0.05 μg μl of model protein was sampled after 20 hours. 50 mM sodium citrate pH 4.0 spiked with model proteins (0.05 g 1) was used as a buffer control.
From each reaction 10 μl was loaded into an 18% SDS PAGE gel and run for 30 minutes at 200 V. The proteins in the gel were then transferred to nitrocellulose for immunoblotting. The nitrocellulose membrane was blocked for 1 hour at room temperature with 5% milk in TBST buffer. The individual blots were probed with their specific primary antibody to detect the appropriate model protein for 1 hour at room temperature on a shaker. The mouse anti-IGF1 antibody (R&D systems #mab291) was used at 2 μg/ml diluted in TBST. The mouse anti-rhGH antibody (Abeam #ab51232) was used at 2 μg/ml diluted in TBST. The mouse anti-IFNα2b antibody (Abeam #ab9386) was used at 1 μg/ml diluted in TBST. After briefly washing the blot membranes with TBST, the secondary antibody was added for 1 hour at room temperature shaking. The secondary goat anti-mouse AP conjugated antibody (Biorad #170-6520) was diluted 1:10,000 in TBST.
This same spiking experiment as was done with MAB01 to investigate its stability in the 6 protease deletion supernatant with and without inhibitors (FIG. 43). Samples were taken as described above and immunoblotted with an anti-heavy chain AP conjugated antibody (Sigma #A3188). […] There was no obvious benefit having used inhibitors. The antibody was stable in this pH 4.2 supernatant. […]

[7] = third chymostatin culture sample, 100 μM

O=S(=O)(F)Cc1ccccc1 [PMSF]
IgG degradation by F4 serine protease fraction (serine proteases): able to inhibit most of the degradation

CC(C)C[C@H](NC(=O)[C@@H](NC(=O)N[C@@H](Cc1ccccc1)C(=O)O)[C@@H]1CCN=C(N)N1)C(=O)N[C@H](C=O)Cc1ccccc1 [chymostatin]
proteases inhibited [1]: inhibited SLP2 | inhibition of SIP purified protease activity against casein ([1]; FIG. 11): able to inhibit the SLP2 protease | rituximab heavy chain fragment formation [2]: inhibited the initial production of the 42 kDa fragment | rituximab heavy chain production vs untreated cultures ([3]; day 5, SBTI 100 or 500 μg/ml, chymostatin 100 μM): increased the amount of full length rituximab heavy chain produced | effect on culture growth (followed by pH) ([3]; small shake flasks, inhibitors added daily day 2-5): small reduction in growth | full length rituximab heavy chain [3, 7]: approximately 90% | heavy chain fragment [3, 7]: ~10% | effect on hGH production [4]: improved the amount of full length product observed

Ac-Phe-Lys-Phe-(AHPPA)-Leu-Arg-NH2 (FKFXLR; HELM PEPTIDE1{[ac].F.K.F.[O=C(C[C@H](O)[C@H](Cc1ccccc1)N[*:1])[*:2]].L.R.[am]}$$$$V2.0; SMILES CC(=O)N[C@@H](Cc1ccccc1)C(=O)N[C@@H](CCCCN)C(=O)N[C@@H](Cc1ccccc1)C(=O)N[C@@H](Cc1ccccc1)[C@@H](O)CC(=O)N[C@@H](CC(C)C)C(=O)N[C@@H](CCCNC(=N)N)C(N)=O) [SIP peptide]
proteases inhibited [1]: inhibited both aspartic and glutamic proteases | effect on hGH production [4]: noticeable increase in hGH amount | aspartic and glutamic protease activities against MAB01 heavy chain [5]: inhibited

IGF1: insulin-like growth factor 1, model protein
stability of model protein in supernatant without inhibitors [6]: the majority appeared to be degraded

hGH: human growth hormone, model protein
stability of model protein in supernatant without inhibitors [6]: the majority appeared to be degraded

Source: patent US11180767B2, “Protease deficient filamentous fungal cells and methods of use thereof” (GLYKOS FINLAND OY, priority 2012, dated 2021)
